Source: US20120270848A1, “Novel Compositions and Therapeutic Methods Using Same” (Galleon Pharmaceuticals, Inc., priority 2010, published 2012)
Values after ≈ are worked out from the molar mass of the structure shown. Values joined by “and” are separate entries in the source; they are usually repeats but may differ in a detail not shown here. Identical values can stand only once. “Also recorded” adds a separate entry of the source.

Legend:
rat = test: Cardio-respiratory traces after IV bolus (respiratory flow, volumes, minute ventilation, blood pressure); type: in vivo; conditions: for effect on arterial blood pressure and arrhythmias / effect on respiratory flow, inspiratory and expiratory volume, minute ventilation: 30 mg/kg IV bolus
Experimental: (§1) All surgical procedures were performed under anesthesia induced by 2% isoflurane in compressed medical grade air. With rats in supine position, the right femoral vein was catheterized using polyethylene tubing (PE-50). This catheter was used for fluid and drug administration. Simultaneously, the right femoral artery was also catheterized for monitoring blood pressure. In order to measure the respiratory parameters in spontaneously breathing rats, trachea was intubated using 13 gauge tracheal tube (2.5 mm ID, Instech Solomon, Pa.).
The procedure outlined in Example 1 was used herein. […] Results are illustrated in FIG. 6.
The procedure described in Example 1 was used herein to evaluate the effect of (−)-doxapram on mean arterial blood pressure (MAP) in the rat. […] Results are illustrated in FIG. 8.

rats = test: Observations of animal behavior and adverse effects; type: in vivo, rat; conditions: for Death (animals out of group of 6): 30 mg/kg IV bolus, 30 mg/kg; for Clonic movements (animals out of group of 6) / Hunching, static, increased urination & defecation (animals out of group of 6): 3 mg/kg
Description: In Examples 1-7 described above, all rats are observed for behavioral changes and adverse effects, as recognized by those skilled in the art. Such effects include central nervous system and motor effects such as impairment, sedation, and convulsive potential, and mortality. Other effects related to bodily functions are also observable and may include changes in breathing, urination, defecation, posture, and normal cage activities (i.e., grooming, exploring, eating, etc.). […]

[1] = tested on: hypoxic ventilatory response in the rat; test: Hypoxic ventilatory response to 12% O2, plethysmography; type: in vivo; conditions: IV infusion (Table 5: 1, 3 mg/kg/min; text: 3 mg/kg/min), compared to vehicle
Experimental: Rats with a pre-cannulated jugular vein (for administrating drugs) were acclimated to plethysmography chambers for a minimum of 60 minutes, or until animals were no longer restless. Each animal was dosed with (−)-doxapram, (+)-doxapram, or racemic doxapram via infusion into the jugular vein catheter over a period of 15 minutes, at 3 mg/kg/min at 0.020 ml/min based on a 300 gram rat. After a period of 15 minutes, an isocapnic, hypoxic mixture (12% O2 balanced N2) was administered into all chambers using a gas mixer (CWE inc. GSM-3 gas mixer) for 15 minutes. After 15 minutes, the gas mixer was turned off, resulting in normal room air pumped into the chambers. Ten minutes later, the infusion pumps were turned off, and all animals were given a 15 minute recovery period, followed by a post-study analysis of rat health and behavior. […] The small increases in minute ventilation seen towards the end of the experiment in the (−)-doxapram group (i.e. T20-T55) were associated with behavioral toxicities and therefore cannot be distinguished from non-specific side effects. Results are illustrated in FIG. 5 and Table 5.

[2] = tested on: opioid-induced respiratory depression in the rat; test: Opioid-induced respiratory depression, plethysmography (minute ventilation); type: in vivo; conditions: 1, 3 mg/kg/min IV infusion after 10 mg/kg IV morphine; compared to vehicle
Experimental: All animal experiments were carried out according to the US law on animals care and use approved by Galleon Pharmaceuticals Institutional Animal Care and Use Committee (IACUC). Rats with pre-cannulated jugular vein (for administrating drugs) were acclimated to plethysmography chambers for a minimum of 60 minutes, or until animals were no longer restless. Each animal was dosed with morphine sulfate (10 mg/kg), dissolved in sterile water at a concentration of 10 mg/mL (supplied by Baxter Healthcare Corporation), via injection into the jugular vein catheter over a period of 5-10 seconds. After a period of 5 min, (−)-doxapram, (+)-doxapram, or racemic doxapram ([…]) was administered via infusion into the jugular vein at a rate of 0.020 mL/min for a 300 gram rat. Behavioral observations were made though the course of the experiment. After 20 min of infusion at 1 mg/kg/min, the infusion rates were tripled from 0.020 mL/min to 0.060 mL/min for all rats, based on body weight. After 20 minutes of infusion at this dose, the infusion pumps were turned off, and all animals were given a 20 minute recovery period, followed by a post-study analysis of rat health and behavior. […] The small increase in minute ventilation seen towards the end of the experiment in the (−)-doxapram group was associated with behavioral toxicities and therefore cannot be distinguished from non-specific side effects. […]

[3] = tested on: spontaneously breathing rats; test: In vivo spirometry: cumulative dose-dependent ventilatory response (maximum peak minute ventilation); design: species or system rat
Experimental: as §1
After establishing a stable base-line at 1.5% isoflurane, cumulative dose-dependent (1, 3, 10 and 30 mg/kg) ventilatory responses to (−)-doxapram, (+)-doxapram, or racemic doxapram were generated from spontaneously breathing rats. Maximum peak minute ventilatory (MV) values at each dose from corresponding drug were calculated and used for generating ED50 values. Results are illustrated in Table 3 and FIG. 1. All the specific ventilatory stimulant activity of racemic doxapram was associated with the (+)-enantiomer.

[4] = Comparative IV pharmacokinetics of a 20 min infusion; type: in vivo; conditions: 20 min infusion of 3 mg/kg/min IV
Experimental: FIG. 9 is a set of graphs illustrating the IV pharmacokinetics of a 20-minute infusion (from 15 minutes to 35 minutes) of 3 mg/kg/min IV (+)-doxapram and (−)-doxapram. The upper panel pharmacokinetic data was plotted on a linear y-axis, the lower panel represents the same data plotted on a log y-axis.
The difference in efficacy and adverse events seen between the enantiomers is therefore due to genuine differences in the intrinsic pharmacodynamics (i.e. pharmacology and side effects profiles) of the enantiomers, as opposed to differential exposures/pharmacokinetics. Results are illustrated in FIG. 9.

[5] = tested on: opioid-induced respiratory depression in the rat; test: Opioid-induced changes in arterial blood gas parameters, arterial blood gas analysis; type: in vivo; conditions: for Arterial Blood Gases - OIRD, pCO2 (mmHg) and saO2 (%): reversal of opioid-induced respiratory depression: 3 mg/kg/min IV infusion after 10 mg/kg IV morphine, compared to vehicle; for PaCO2: % reversal / PaO2: % reversal / pH % reversal / saO2: % reversal: 3.0 mpk/min IV infusion after morphine 10 mg/kg, vs composite vehicle group, 15 min into 20 min infusion
Experimental: Rats with pre-cannulated jugular vein and femoral arterial catheters (for administrating drugs and obtaining blood samples respectively) were obtained from Harlan laboratories and kept at the animal facility at Galleon Pharmaceuticals until the experimental procedures. All animals experiments were carried out according to the US law on animals care and use approved by Galleon Pharmaceuticals IACUC. Each animal was dosed with morphine sulfate (10 mg/kg), dissolved in saline at a concentration of 10 mg/ml, via injection into the jugular vein over a period of 20 seconds with a 20 second flush of 0.9% NaCl saline. Prior to morphine administration, two 250 μL samples of arterial blood were aspirated from the femoral artery into a pre-heparinized syringe. The samples were analyzed on Radiometer's ABL Flex 800, where pO2, pCO2, pH, saO2 and other parameters were recorded. Aspirated volumes of arterial blood were replaced by room temperature sterile saline (˜300 μL) slowly flushed back into the femoral arterial catheter of the rodent to prevent anemia and/or dehydration. Morphine was then administered and 2 minutes later another blood sample was taken. After a period of 5 min from the administration of morphine, (−)-doxapram, (+)-doxapram or racemic doxapram (15 mg/mL) was administered via infusion into the jugular vein at a rate of 60 μL/min/300 gram rat. The infusion started at t=15 minutes and ended at t=35 minutes. Arterial blood gas analysis occurred at time points t=17, 25, 30, 37, 45, and 50 minutes. […] The small improvements in blood gas parameters seen towards the end of the experiment in the (−)-doxapram group were associated with behavioral toxicities and therefore cannot be distinguished from non-specific side effects. Results are illustrated in Table 4 and FIGS. 3-4.

[6] = Solubility in EtOH/MeOH for the chromatographic separation; type: physicochemical; conditions: organic solvent or mixture
Experimental: With stirring and sonication, 2.51 g of racemic doxapram were dissolved in approximately 200 mL EtOH/MeOH (50/50 v/v). The solution was injected onto the chromatographic column using the conditions illustrated above. The injection volume was 4 mL, performed every 7 minutes. The appropriate fractions collected from the chromatographic process were concentrated using rotary evaporators at 40° C. and 50 mbar. After solvent removal, the products were dried in a vacuum oven at 40° C. to obtain (−)-doxapram (1.19 g, 95% yield, ?99% e.e.) and (+)-doxapram (1.34 g, 107% yield, ≧99% e.e.). The experimental recovery of (+)-doxapram may have been high due to residual DMEA in the system.
A sample of 19.94 g of racemic doxapram was dissolved in approximately 1.0 L of EtOH/MeOH 80/20 (v/v) with stirring and sonication. The injection volume was 4 mL, and injection was performed every 5.83 min. The appropriate fractions collected from the chromatographic process were concentrated using rotary evaporators at 40° C. and 50 mbar. After solvent removal, the products were dried in a vacuum oven at 40° C. to obtain (−)-doxapram (8.47 g, 85% yield, ≧99% e.e.) and (+)-doxapram (12.50 g, 125% yield, ≧99% e.e.). The experimental recovery of (+)-doxapram may have been high due to residual DMEA in the system.

[7] = IV bolus, cumulative doses 1, 3, 10 and 30 mg/kg, 1.5% isoflurane, maximum peak MV values
[8] = ventilatory stimulant activity, rat IV

SMILES: CCN1CC(CCN2CCOCC2)C(c2ccccc2)(c2ccccc2)C1=O (single isomer, unassigned; (+)) [(+)-doxapram, (+)-enantiomer of 1-ethyl-4-(2-morphilinoethyl)-3,3-diphenyl-2-pyrrolidinone]
- effect on arterial blood pressure and arrhythmias (rat): only a minimal reduction in blood pressure without associated arrhythmias
- effect on respiratory flow, inspiratory and expiratory volume, minute ventilation (rat): increased respiratory flow, inspiratory and expiratory volume, as well as enhanced minute ventilation
- Cardiopulmonary response: mean arterial pressure (MAP) (rat; E-Phys, ≧10 mg/kg IV bolus): MAP ↓
- Death (animals out of group of 6) (rats; Pleth.): 0/6
- adverse effects across the studies (rats; rat, in vivo, iv): did not
- Clonic movements (animals out of group of 6) (rats; rat, in vivo, iv): 0/6
- Hunching, static, increased urination & defecation (animals out of group of 6) (rats; rat, in vivo, iv): 0/6
- Plethysmography (MV), Naïve and HVR: potentiation of hypoxic ventilatory response [1]: significantly potentiated the hypoxic ventilatory response; also recorded: Active
- Plethysmography - OIRD (MV): reversal of opioid-induced respiratory depression [2]: significantly reverses opioid-induced respiratory depression; also recorded: Active
- ED50 (mg/kg IV), increase in minute ventilation (MV) [3, 7]: 2.2 mg/kg and 2.1 mg/kg
- plasma exposure (time course, maximum concentration, AUC, washout), enantiomer vs enantiomer [4]: directly comparable time course, maximum concentration and exposure (AUC)
- Arterial Blood Gases - OIRD, pCO2 (mmHg) and saO2 (%): reversal of opioid-induced respiratory depression [5]: significantly reverse opioid-induced respiratory depression; also recorded: Active
- PaCO2: % reversal [5]: 79%
- PaO2: % reversal [5]: 41%
- pH % reversal [5]: 49%
- saO2: % reversal [5]: 41%

SMILES: CCN1CC(CCN2CCOCC2)C(c2ccccc2)(c2ccccc2)C1=O (racemic) [doxapram, 1-ethyl-4-(2-morphilinoethyl)-3,3-diphenyl-2-pyrrolidinone, reference compound]
- Plethysmography (MV), Naïve and HVR: potentiation of hypoxic ventilatory response [1]: significantly potentiated the hypoxic ventilatory response
- solubility ([6]; in EtOH/MeOH 80/20 (v/v)): 19.9 mg/mL (≈ 52.6 mM)
- solubility ([6]; in EtOH/MeOH (50/50 v/v)): 12.6 mg/mL (≈ 33.3 mM)
- ED50 ([3]; Rattus norvegicus, IV bolus, cumulative doses 1, 3, 10 and 30 mg/kg, 1.5% isoflurane, maximum peak MV values, read-out: ED50 (mg/kg IV), increase in minute ventilation (MV)): 4.8 mg/kg
- potency relative to (+)-enantiomer [3, 8]: approximately 50%
- Arterial Blood Gases - OIRD, pCO2 (mmHg) and saO2 (%): reversal of opioid-induced respiratory depression [5]: significantly reverse opioid-induced respiratory depression
- PaCO2: % reversal [5]: 90%
- PaO2: % reversal [5]: 22%
- pH % reversal [5]: 58%
- saO2: % reversal [5]: 33%

SMILES: CCN1CC(CCN2CCOCC2)C(c2ccccc2)(c2ccccc2)C1=O (single isomer, unassigned; (-)) [(−)-doxapram]
- effect on arterial blood pressure and arrhythmias (rat): pronounced reduction in arterial blood pressure together with a period of associated arrhythmias; also recorded: pronounced drop in blood pressure in rat, including a period of heart arrhythmias
- effect on respiratory flow, inspiratory and expiratory volume, minute ventilation (rat): only a minimal effect on respiratory flow, inspiratory and expiratory volume, and minute ventilation; also recorded: minimal ventilatory response
- Cardiopulmonary response: arrhythmias (rat; E-Phys, ≧10 mg/kg IV bolus): Arrhythmias
- Cardiopulmonary response: mean arterial pressure (MAP) (rat; E-Phys, ≧10 mg/kg IV bolus, 10 mg/kg): MAP ↓↓
- Clonic movements (animals out of group of 6) (rats; ABG post morphine, 3 mg/kg/min IV): 5/6
- Hunching, static, increased urination & defecation (animals out of group of 6) (rats; Pleth., 3 mg/kg/min IV): 6/6
- Death (animals out of group of 6) (rats; Pleth.): 5/6
- adverse effects across the studies (rats; at the doses tested, IV): consistently produced a variety of adverse effects
- Plethysmography (MV), Naïve and HVR: potentiation of hypoxic ventilatory response [1]: did not; also recorded: Not active
- Plethysmography - OIRD (MV): reversal of opioid-induced respiratory depression [2]: does not; also recorded: Not active
- ED50 (mg/kg IV), increase in minute ventilation (MV) [3, 7]: >200 mg/kg
- potency vs (+)-enantiomer (times less potent) [3, 8]: at least 100 times
- plasma exposure (time course, maximum concentration, AUC, washout), enantiomer vs enantiomer [4]: directly comparable time course, maximum concentration and exposure (AUC)
- Arterial Blood Gases - OIRD, pCO2 (mmHg) and saO2 (%): reversal of opioid-induced respiratory depression [5]: does not; also recorded: Not active
- PaCO2: % reversal [5]: 24%
- PaO2: % reversal [5]: −2%
- pH % reversal [5]: −8%
- saO2: % reversal [5]: −6%
